Here are results for 26 compounds from US10189854B2, “Substituted pyrimidine compounds” (Grünenthal GmbH, priority 2014, dated 2019).

human PDE4B1, sequence (Q07343 whole entry): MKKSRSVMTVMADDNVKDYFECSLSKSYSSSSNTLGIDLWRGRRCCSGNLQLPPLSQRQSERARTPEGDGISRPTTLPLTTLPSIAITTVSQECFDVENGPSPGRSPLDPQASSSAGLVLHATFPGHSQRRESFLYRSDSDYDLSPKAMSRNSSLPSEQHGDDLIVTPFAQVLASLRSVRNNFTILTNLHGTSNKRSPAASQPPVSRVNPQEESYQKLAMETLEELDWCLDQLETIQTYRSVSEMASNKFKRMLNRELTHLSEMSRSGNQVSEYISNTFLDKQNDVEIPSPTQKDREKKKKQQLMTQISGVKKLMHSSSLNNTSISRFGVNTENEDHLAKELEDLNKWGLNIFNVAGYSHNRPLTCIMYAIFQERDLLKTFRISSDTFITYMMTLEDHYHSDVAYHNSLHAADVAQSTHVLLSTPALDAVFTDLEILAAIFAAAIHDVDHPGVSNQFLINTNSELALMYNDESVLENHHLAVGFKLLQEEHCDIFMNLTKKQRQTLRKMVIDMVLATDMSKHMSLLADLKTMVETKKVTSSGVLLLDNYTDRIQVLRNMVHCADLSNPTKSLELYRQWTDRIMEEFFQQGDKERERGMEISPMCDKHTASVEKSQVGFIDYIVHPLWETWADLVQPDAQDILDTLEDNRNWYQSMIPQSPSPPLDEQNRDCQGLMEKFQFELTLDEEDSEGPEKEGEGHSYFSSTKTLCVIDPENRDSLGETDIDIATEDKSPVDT

The target in this experiment is human PDE4B1 (Homo sapiens (Human), UniProt Q07343). Put plainly: cAMP HTRF assay to determine the activity of hPDE4B1. It is filed as biochemical. The following applies: IC50 inhibition of PDE4B; human recombinant PDE4B1, cAMP HTRF assay. The method, then:
Biological Testing cAMP HTRF® Assay to Determine the Activity of hPDE4B1
The inhibiting effect of the compounds on the enzyme activity of human PDE4B1 was measured by the quantification of 5′-adenosine monophosphate (5′-AMP), which is formed from 3′,5′-cyclic adenosine monophosphate (cAMP). Human recombinant enzyme, expressed in Sf9 cells, and the HTRF (homogeneous time-resolved fluorescence) detection method were used in the assay.
The test compound or water (control) was mixed with the human recombinant PDE4B1 enzyme (4.8 U) in a buffer consisting of 44.4 mM tris-HCl, 5.28 mM MgCl2, 2.64 mM DTT and 0.044% Tween 20 (pH 7.8). After adding the cAMP enzyme substrate (final concentration 40 nM), the mixture was incubated for 30 minutes at room temperature. Then a fluorescence acceptor (Dye2 marked with cAMP), a fluorescence donor (anti-cAMP antibody marked with a europium cryptate) and the non-specific phosphodiesterase inhibitor IBMX (3-isobutyl-1-methylxanthine; final concentration 1 mM) were added. After 60 min the fluorescence transfer, which correlates with the amount of remaining cAMP, was measured with a microplate reader (Rubystar, BMG) at λex=337 nm, λem=620 nm and λem=665 nm. The enzyme activity was calculated from the quotient formed from the measured signal at 665 nm and that at 620 nm. The result was expressed as the percentage inhibition of enzyme activity of the control (without PDE4 inhibitor). The enzyme was omitted for measurement of the basal control.
[N. Saldou et al., Comparison of recombinant human PDE4 isoforms: interaction with substrate and inhibitors, Cell. Signal. Vol. 10, No. 6, 427-440, 1998]. Several compounds according to the invention are tested in the above-described assay.
(TR-FRET usually uses a lanthanide donor and a delayed reading to cut background.)
As usually defined, the IC50 is the concentration that inhibits the measured activity by half. `O=C(c1ccc2c(c1)N(c1ncc(-c3cc(Cl)ccc3F)cn1)CC21CC1)N1CCOCC1` [Compound 58, [1-[5-(5-Chloro-2-fluoro-phenyl)-pyrimidin-2-yl]-spiro[1,2-dihydro-indole-3,1′-cyclopropane]-6-yl]-morpholin-4-yl-methanone]: the half-maximal inhibitory concentration (IC50) is less than 0.1 µM.

Turning to `O=C(c1ccc2c(c1)N(c1ncc(-c3ccccc3)cn1)CC21CC1)N1CCCC1` [Compound 59, [1-(5-Phenyl-pyrimidin-2-yl)-spiro[1,2-dihydro-indole-3,1′-cyclopropane]-6-yl]-pyrrolidin-1-yl-methanone], the IC50 was less than 0.1 µM.

With `CN1CCN(C(=O)c2ccc3c(c2)N(c2ncc(-c4ccccc4F)cn2)CC32CC2)CC1` [Compound 60, [1-[5-(2-Fluorophenyl)-pyrimidin-2-yl]-spiro[1,2-dihydro-indole-3,1′-cyclopropane]-6-yl]-(4-methyl-piperazin-1-yl)-methanone], the 50% inhibitory concentration (IC50) was less than 0.1 µM.

Take `CNC(=O)c1ccc2c(c1)N(c1ncc(-c3ccccc3F)cn1)CC21CC1` [Compound 61, 1-[5-(2-Fluorophenyl)-pyrimidin-2-yl]-N-methyl-spiro[1,2-dihydro-indole-3,1′-cyclopropane]-6-carboxylic acid amide]: the IC50 was 0.1 to 1 µM.

`O=C(c1ccc2c(c1)N(c1ncc(-c3ccccc3C3CC3)cn1)CC21CC1)N1CCOCC1` [Compound 62, [1-[5-(2-Cyclopropyl-phenyl)-pyrimidin-2-yl]-spiro[1,2-dihydro-indole-3,1′-cyclopropane]-6-yl]-morpholin-4-yl-methanone]: the IC50 lay in the range of 1 to 10 µM.

On to `NC(=O)c1ccc(-c2cnc(N3CC4(CC4)c4ccc(C(=O)N5CCOCC5)cc43)nc2)cc1` [Compound 63, 4-[2-[6-(Morpholine-4-carbonyl)-spiro[1,2-dihydro-indole-3,1′-cyclopropane]-1-yl]-pyrimidin-5-yl]-benzamide], for which the IC50 is less than 0.1 µM.

Take `O=C(c1ccc2c(c1)N(c1ncc(-c3ccccc3F)cn1)CC21CC1)N1CC2(COC2)C1` [Compound 64, [1-[5-(2-Fluorophenyl)-pyrimidin-2-yl]-spiro[1,2-dihydro-indole-3,1′-cyclopropane]-6-yl]-(2-oxa-6-azaspiro[3.3]heptan-6-yl)-methanone]: the half-maximal inhibitory concentration (IC50) was 1 to 10 µM.

For `CN(C)C(=O)c1ccc(-c2cnc(N3CC4(CC4)c4ccc(C(=O)N5CCOCC5)cc43)nc2)c(F)c1` [Compound 65, 3-Fluoro-N,N-dimethyl-4-[2-[6-(morpholine-4-carbonyl)-spiro[1,2-dihydro-indole-3,1′-cyclopropane]-1-yl]-pyrimidin-5-yl]-benzamide], the IC50 was less than 0.1 µM.

On to `O=C(c1ccc2c(c1)N(c1ncc(-c3ccccc3F)cn1)CC21CC1)N1CCN(C2CC2)CC1` [Compound 66, (4-Cyclopropyl-piperazin-1-yl)-[1-[5-(2-fluorophenyl)-pyrimidin-2-yl]-spiro[1,2-dihydro-indole-3,1′-cyclopropane]-6-yl]-methanone], for which the IC50 lay within 1 to 10 µM.

As for `O=C(c1ccc2c(c1)N(c1ncc(-c3cc(OC(F)(F)F)ccc3F)cn1)CC21CC1)N1CCOCC1` [Compound 67, [1-[5-(2-Fluoro-5-(trifluoromethyloxy)-phenyl]-pyrimidin-2-yl]-spiro[1,2-dihydro-indole-3,1′-cyclopropane]-6-yl]-morpholin-4-yl-methanone], the half-maximal inhibitory concentration (IC50) was 0.1 to 1 µM.

As to `O=C(c1ccc2c(c1)N(c1ncc(-c3ccccc3F)cn1)CC21CC1)N1CCC2(COC2)C1` [Compound 68, [1-[5-(2-Fluorophenyl)-pyrimidin-2-yl]-spiro[1,2-dihydro-indole-3,1′-cyclopropane]-6-yl]-(2-oxa-7-azaspiro[3.4]octan-7-yl)-methanone], the concentration for half-maximal inhibition (IC50) was 0.1 to 1 µM.

`Cc1cccc(F)c1-c1cnc(N2CC3(CC3)c3ccc(C(=O)N4CCOCC4)cc32)nc1` [Compound 69, [1-[5-(2-Fluoro-6-methyl-phenyl)-pyrimidin-2-yl]-spiro[1,2-dihydro-indole-3,1′-cyclopropane]-6-yl]-morpholin-4-yl-methanone]: the concentration for half-maximal inhibition (IC50) lay within 0.1 to 1 µM.

On to `O=C(c1ccc2c(c1)N(c1ncc(-c3ccc(F)cc3F)cn1)CC21CC1)N1CCNCC1` [Compound 71, [1-[5-(2,4-Difluoro-phenyl)-pyrimidin-2-yl]-spiro[1,2-dihydro-indole-3,1′-cyclopropane]-6-yl]-piperazin-1-yl-methanone], for which the IC50 was in the range of 0.1 to 1 µM.

On to `O=C(c1ccc2c(c1)N(c1ncc(-c3cc(OC(F)(F)F)ccc3F)cn1)CC21CC1)N1CCNCC1` [Compound 72, [1-[5-[2-Fluoro-5-(trifluoromethyloxy)-phenyl]-pyrimidin-2-yl]-spiro[1,2-dihydro-indole-3,1′-cyclopropane]-6-yl]-piperazin-1-yl-methanone], for which the IC50 is less than 0.1 µM.

Regarding `COc1ccc(F)c(-c2cnc(N3CC4(CC4)c4ccc(C(=O)N5CCNCC5)cc43)nc2)c1` [Compound 73, [1-[5-(2-Fluoro-5-methoxy-phenyl)-pyrimidin-2-yl]-spiro[1,2-dihydro-indole-3,1′-cyclopropane]-6-yl]-piperazin-1-yl-methanone], the IC50 is less than 0.1 µM.

In the case of `O=C(c1ccc2c(c1)N(c1ncc(-c3ccccc3F)cn1)CC21CC1)N1CCC2(CNC2)C1` [Compound 74, (2,6-Diazaspiro[3.4]octan-6-yl)-[1-[5-(2-fluorophenyl)-pyrimidin-2-yl]-spiro[1,2-dihydro-indole-3,1′-cyclopropane]-6-yl]-methanone], the half-inhibitory concentration (IC50) was 1 to 10 µM.

`COCCCNC(=O)c1ccc2c(c1)N(c1ncc(-c3ccccc3F)cn1)CC21CC1` [Compound 75, 1-[5-(2-Fluorophenyl)-pyrimidin-2-yl]-N-(3-methoxy-propyl)-spiro[1,2-dihydro-indole-3,1′-cyclopropane]-6-carboxylic acid amide]: the IC50 was 0.1 to 1 µM.

On to `N#CCCN1CCN(C(=O)c2ccc3c(c2)N(c2ncc(-c4ccccc4F)cn2)CC32CC2)CC1` [Compound 76, 3-[4-[1-[5-(2-Fluorophenyl)-pyrimidin-2-yl]-spiro[1,2-dihydro-indole-3,1′-cyclopropane]-6-carbonyl]-piperazin-1-yl]-propionitrile], for which the IC50 lay in the range of 0.1 to 1 µM.

As to `CN(C)[C@@H]1CCN(C(=O)c2ccc3c(c2)N(c2ncc(-c4ccccc4F)cn2)CC32CC2)C1` [Compound 77, [(3R)-3-Dimethylamino-pyrrolidin-1-yl]-[1-[5-(2-fluorophenyl)-pyrimidin-2-yl]-spiro[1,2-dihydro-indole-3,1′-cyclopropane]-6-yl]-methanone], the IC50 fell in the range of 0.1 to 1 µM.

On to `O=C(NCCN1CCCC1=O)c1ccc2c(c1)N(c1ncc(-c3ccccc3F)cn1)CC21CC1` [Compound 78, 1-[5-(2-Fluorophenyl)-pyrimidin-2-yl]-N-[2-(2-oxo-pyrrolidin-1-yl)-ethyl]-spiro[1,2-dihydro-indole-3,1′-cyclopropane]-6-carboxylic acid amide], for which the half-maximal inhibitory concentration (IC50) was in the range of 0.1 to 1 µM.

As for `O=C(c1ccc2c(c1)N(c1ncc(-c3ccccc3F)cn1)CC21CC1)N1CCCC2(COC2)C1` [Compound 79, [1-[5-(2-Fluorophenyl)-pyrimidin-2-yl]-spiro[1,2-dihydro-indole-3,1′-cyclopropane]-6-yl]-(2-oxa-8-azaspiro[3.5]nonan-8-yl)-methanone], the half-maximal inhibitory concentration (IC50) fell in the range of 1 to 10 µM.

On to `O=C(c1ccc2c(c1)N(c1ncc(-c3ccccc3F)cn1)CC21CC1)N1CCCCC12COC2` [Compound 80, [1-[5-(2-Fluorophenyl)-pyrimidin-2-yl]-spiro[1,2-dihydro-indole-3,1′-cyclopropane]-6-yl]-(2-oxa-5-azaspiro[3.5]nonan-5-yl)-methanone], for which the concentration for half-maximal inhibition (IC50) was in the range of 0.1 to 1 µM.

Regarding `O=C(NCC1CCOCC1)c1ccc2c(c1)N(c1ncc(-c3ccccc3F)cn1)CC21CC1` [Compound 82, 1-[5-(2-Fluorophenyl)-pyrimidin-2-yl]-N-(tetrahydro-pyran-4-yl-methyl)-spiro[1,2-dihydro-indole-3,1′-cyclopropane]-6-carboxylic acid amide], the half-inhibitory concentration (IC50) fell in the range of 1 to 10 µM.

In the case of `O=C(c1ccc2c(c1)N(c1ncc(-c3ccccc3F)cn1)CC21CC1)N1CCCCC1` [Compound 84, [1-[5-(2-Fluorophenyl)-pyrimidin-2-yl]-spiro[1,2-dihydro-indole-3,1′-cyclopropane]-6-yl]-piperidin-1-yl-methanone], the IC50 is less than 0.1 µM.

As for `CC(=O)N1CCNC(C(=O)c2ccc3c(c2)N(c2ncc(-c4ccccc4F)cn2)CC32CC2)C1` (centres unmarked) [Compound 85, 1-[5-[1-[5-(2-Fluorophenyl)-pyrimidin-2-yl]-spiro[1,2-dihydro-indole-3,1′-cyclopropane]-6-carbonyl]-piperazin-1-yl]-ethanone], the IC50 was less than 0.1 µM.

`CCN1CCN(C(=O)c2ccc3c(c2)N(c2ncc(-c4ccccc4F)cn2)CC32CC2)CC1` [Compound 86, (4-Ethyl-piperazin-1-yl)-[1-[5-(2-fluorophenyl)-pyrimidin-2-yl]-spiro[1,2-dihydro-indole-3,1′-cyclopropane]-6-yl]methanone]: the half-maximal inhibitory concentration (IC50) was in the range of 0.1 to 1 µM.
